pKi: −log10 of the molar value. Where two headings read alike, the source gives them in different places. One block for each compound: values may come before it.
What was measured:
Type in all cases: biochemical
hSARM1 [1] = biological target: T1, hSARM1 (Homo sapiens, UniProt Q6SZW1); assay: In vitro hSARM1 NADase activity, Resasurin assay
T1 construct: hSARM1w.t; (26ERL . . . GPT724) that was not mutated in E642, was also expressed and isolated; 6xHis (N); TEV cleavage site (N); made in house; host or cells: HEK293F suspension cells
T1 sequence (Q6SZW1 with tags, fused parts or gaps): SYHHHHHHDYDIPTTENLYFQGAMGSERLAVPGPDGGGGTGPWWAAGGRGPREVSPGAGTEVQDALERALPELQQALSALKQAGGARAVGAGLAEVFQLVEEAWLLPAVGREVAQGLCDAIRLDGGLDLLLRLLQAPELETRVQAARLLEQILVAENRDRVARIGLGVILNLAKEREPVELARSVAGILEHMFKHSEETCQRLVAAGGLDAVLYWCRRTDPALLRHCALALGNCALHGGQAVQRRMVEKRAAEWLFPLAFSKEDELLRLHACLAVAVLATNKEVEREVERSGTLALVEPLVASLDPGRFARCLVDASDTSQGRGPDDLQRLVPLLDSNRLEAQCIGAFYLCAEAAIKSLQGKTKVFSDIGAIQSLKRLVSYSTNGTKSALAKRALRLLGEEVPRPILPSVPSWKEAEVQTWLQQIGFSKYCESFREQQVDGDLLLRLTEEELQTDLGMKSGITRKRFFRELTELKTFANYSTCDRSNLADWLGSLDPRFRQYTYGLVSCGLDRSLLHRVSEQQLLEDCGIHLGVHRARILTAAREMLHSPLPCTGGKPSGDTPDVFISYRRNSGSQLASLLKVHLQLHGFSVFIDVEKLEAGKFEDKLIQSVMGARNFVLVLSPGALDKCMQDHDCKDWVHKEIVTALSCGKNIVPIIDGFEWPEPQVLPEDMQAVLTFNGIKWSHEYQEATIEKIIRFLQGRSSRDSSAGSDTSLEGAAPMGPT
Experimental: For quantitation of hSARM1 NADase activity and the inhibitory effect of selected compounds (FIG. 6F; FIG. 7A-7B), purified hSARM1w.t. and hSARM1E642Q proteins were first diluted to 400 nM concentration in 25 mM HEPES pH 7.5, 150 mM NaCl, and then mixed in 25° C. with 1 uM of NAD+(in the same buffer) with a 1:1 v/v ratio. All inhibitors were diluted with the same buffer, and the pH values were measured and if necessary titrated to 7.5. Inhibitors were pre-incubated for 20 min with hSARM1 in 25° C. before mixing with NAD+. At designated time points, reactions were quenched by placing the reaction tubes in 95° C. for 2 min. Measurement of NAD+ concentrations was made by a modified enzymatic coupled cycling assay (K. S. Kanamori et al., NAD. Bio Protoc 8, (2018)). The reaction mix, which includes 100 mM Phosphate buffer pH=8, 0.78% ethanol, 4 uM FMN (Riboflavin 5′-monophosphate sodium salt hydrate), 27.2 U/ml Alcohol dehydrogenase (SIGMA), 1.8 U/ml Diaphorase (SIGMA) and freshly dissolved (in DDW) 8 uM Resasurin (SIGMA), was added to each sample at 1:1 (v/v) ratio and then transferred to 384-well black plate (Corning). Fluorescent data was measured using a SynergyHI (BioTek) plate reader at 554-nm excitation and 593-nm emission wavelengths. Standard curve equation for calculation of NAD+ concentration was created for each assay from constant NAD+ concentrations.

hSARM1 [2] = biological target: T1, hSARM1; assay: eNAD-based NADase assay; conditions: 1:10 eNAD:NAD+; 400 nM enzyme; activity decreases at higher concentrations
Experimental: FIG. 7D: Rate of change in nucleotide fluorescence under steady-state conditions of eNAD hydrolysis by hSARM1. Reactions were initiated by mixing 400 nM enzyme with different concentrations of 1:10 eNAD+: NAD+(mol/mol) mixtures. Three repeats, standard deviation error bars.
Serial dilutions were made with 25 mM HEPES pH 7.5, 150 mM NaCl buffer and the final mix was transferred to 384-well black plate (Corning). Reaction started by the addition of hSARM1 to a final concentration 400 nM. Then, eNAD degradation rate was monitored by fluorescence reading (330-nm excitation and 405-nm emission wavelengths) of the plate using a SynergyHI (BioTek) in 25° C. for 3 hours. For each NAD+ concentration, a control reaction without SARM1 was measured and subtracted from the + hSARM1 reading and the slope of the linear area was calculated. For the final plot, average of slopes from 3 separate assays for each concentration was calculated.

hSARM1 [3] = biological target: T1, hSARM1; assay: Kinetic parameters of hSARM1, substrate inhibition fit
Experimental: FIG. 14C. […] The kinetic parameters were determined from plots of reaction velocity of NAD+ consumption versus substrate (NAD+) concentration and then fitted to the Michaelis-Menten equation (Km and Vmax) or substrate inhibition equation (Ki) using non-linear curve fit in GraphPad Prism. Kcat was calculated by dividing the Vmax with protein molar concentration.
For Vmax and Km determination, the NADase activity assay was performed with several different NAD+ substrate concentrations and sampled in constant time points. For each NAD+ concentration, linear increase zone was taken for slope (V0) calculation. All data were than fitted to the Michaelis-Menten equation using non-linear curve fit in GraphPad Prism software. Kcat was calculated by dividing the Vmax with protein molar concentration.

SMILES: Nc1ncnc2c1ncn2[C@@H]1O[C@H](COP(=O)(O)OP(=O)(O)OP(=O)(O)O)[C@@H](O)[C@H]1O [ATP]
inhibition of hSARM1 NADase activity (hSARM1 [1]; analyzed as for glycerol, FIG. 7A): inhibits the NADase activity of hSARM1 in a dose-dependent manner

SMILES: NC(=O)c1ccc[n+]([C@@H]2O[C@H](COP(=O)([O-])OP(=O)(O)OC[C@H]3O[C@@H](n4cnc5c(N)ncnc54)[C@H](O)[C@@H]3O)[C@@H](O)[C@H]2O)c1 [NAD+, Nicotinamide adenine dinucleotide]
NAD+ concentration at the highest rate of hydrolysis (hSARM1 [2]): 100 µM
pKi (hSARM1 [3]; apparent inhibition by substrate, read-out: Ki for NAD+, hSARM1): 3.14
pKi (hSARM1 [3]; substrate inhibition equation, read-out: Ki, inhibition by the substrate NAD+, hSARM1): 3.15

inhibition of hSARM1 NADase activity (hSARM1 [1]; 15% glycerol, measured 20 minutes after adding 0.5 μM NAD+): 72%
SMILES: OCC(O)CO [glycerol]
